Experimental data as given in paper PMC8724251, “A Supramolecular Nanoparticle of Pemetrexed Improves the Anti-Tumor Effect by Inhibiting Mitochondrial Energy Metabolism” (Frontiers in Bioengineering and Biotechnology, 2021).
Where two headings read alike, the source gives them in different places. Square brackets hold non-standard residues; d marks the D form. Ends that are not written are not given here. Peptide text beside a SMILES is read from it. * marks the point of attachment. ξ: configuration not given here. X1 = Nc1nc2[nH]cc(CCc3ccc(C(=O)*)cc3)c2c(=O)[nH]1; ξE = NC(CCC(=O)O)C(=O)O

Assays:
[1] = system: LLC cells; experiment: MTT viability assay, LLC cells
Experimental: (§1) Lewis lung cancer (LLC) and A549 cells (100 µl) were plated at a concentration of 5 × 10^3 cells/well in a flat-bottomed 96-well plate on Day 0. […] Then, the culture medium was removed, and MTT (0.5 mg/ml) was added to each well and incubated for 4 h. The supernatant was discarded, and dimethyl sulfoxide (100 µl) was used to completely dissolve the crystals.

[2] = system: A549 cells; experiment: MTT viability assay, A549 cells
Experimental: as §1

[3] = Body weight and serum TNFα, IL-6, ALT, AST in LLC tumor-bearing mice; assay type: in vivo, C57BL/6J mice; settings: for mouse weight: i.v., monitored every 2 days
Experimental: (§2) C57BL/6J mice were subcutaneously inoculated with Lewis lung tumors and then randomly divided into four groups (5 mice per group) when the tumor sizes were approximately 100 mm^3. Mice in Groups 1 and 2 received PBS and FFRGD gels through i.v. injections, while mice in Groups 3 and 4 were administered 20 mg/kg PEM and PEM-FFRGD nanoparticles by i.v. injection. Repeated injections were administered on Days 1 and 5. Tumor size and body weight were monitored every 2 days, and the tumor volume was calculated according to the following formula: tumor volume (V, mm^3) = (tumor width)^2 × (tumor length)/2.

[4] = system: LLC cells; experiment: Live/dead assay (calcein-AM / EthD-1), LLC cells; assay type: cell-based; settings: 6 μM, 72 h, calcein-AM/EthD-1, microscopy
Experimental: (§3) LLC cells and A549 cells (5,000 cells/well) were plated in 96-well plates and cultured for 24 h. Then, the cells were cocultured with 6 and 12 µM PEM and PEM-FFRGD for 72 h, respectively. The cells were washed with PBS and stained with calcein-AM and ethidium homodimer-1 (EthD-1) for 15 min. Then, the cells were viewed under microscopy (TI-S, Nikon, United States).

[5] = system: A549 cells; experiment: Live/dead assay (calcein-AM / EthD-1), A549 cells; assay type: cell-based; settings: 12 μM, 72 h, calcein-AM/EthD-1, microscopy
Experimental: as §3

[6] = system: Lewis lung tumors; experiment: In vivo antitumor efficacy in LLC tumor-bearing mice; set-up: species or system C57BL/6J mice; settings: LLC subcutaneous tumors, i.v., 20 mg/kg, two injections, tumor volumes within 2 weeks, n = 5
Experimental: as §2

[7] = LLC tumor-bearing mice, i.v. 20 mg/kg, n = 5

Compound | cell toxicity at 100 μM (LLC cells) ([1]; MTT, 100 μM, 72 h) | cell toxicity at 100 μM (A549 cells) ([2]; MTT, 100 μM, 72 h) | mouse weight ([3]; LLC tumor-bearing mice, n = 5) | cytotoxic activity toward LLC cells compared with PEM alone [1] | cytotoxicity toward LLC cells, 24 h [1] | cytotoxicity toward LLC cells, 48 h [1] | cytotoxicity toward A549 cells, 24 h ([2]; MTT, different concentrations, 24 h incubation) | cytotoxicity toward A549 cells, 48 h ([2]; MTT, different concentrations, 48 h incubation, viability lower than with PEM) | cytotoxic activity toward A549 cells compared with PEM alone ([2]; MTT, series of concentrations, 72 h) | serum level of ALT versus PBS and PEM alone [3, 7] | serum level of AST versus PBS and PEM alone [3, 7] | serum level of IL-6 versus PBS and PEM alone [3, 7] | serum level of TNFα versus PBS and PEM alone [3, 7] | systemic toxicity in mice ([3]; from body weight and serum TNFα, IL-6, ALT, AST) | cell killing in live/dead staining, LLC cells [4] | cell killing in live/dead staining, A549 cells [5] | cytotoxicity toward A549 cells, 24 h [2] | tumor growth [6]
FFRGD [FFRGD, reference compound] | did not display any distinct cell toxicity | did not display any distinct cell toxicity | no influence on mouse weight |  |  |  |  |  |  |  |  |  |  |  |  |  |  | 
N=C(N)NCCC[C@H](NC(=O)[C@H](Cc1ccccc1)NC(=O)[C@H](Cc1ccccc1)NC(=O)C(CCC(=O)O)NC(=O)c1ccc(CCc2c[nH]c3nc(N)[nH]c(=O)c23)cc1)C(=O)NCC(=O)N[C@@H](CC(=O)O)C(=O)O (some centres unmarked) [PEM-FFRGD] (X1-[ξE]FFRGD-OH) |  |  |  | stronger cytotoxic activity | no cytotoxicity | showed cytotoxic activity | no cytotoxicity | showed cytotoxic activity | stronger cytotoxic activity | not different | not different | not different | not different | no systemic toxicity |  |  |  | 
Nc1nc2[nH]cc(CCc3ccc(C(=O)N[C@@H](CCC(=O)O)C(=O)O)cc3)c2c(=O)[nH]1 [PEM, Pemetrexed] |  |  | no influence on mouse weight |  | no cytotoxicity |  |  |  |  |  |  |  |  |  | could kill most cells | could kill most cells | no cytotoxicity | significantly inhibited
